From PubChem BioAssay (NCI)
Values joined by “and” are separate entries in the source; they are usually repeats but may differ in a detail not shown here. Equal entries are not always repeated.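 Compound exposure: 48 hours, 5 concentrations, 96-well plates. GI50: concentration for 50% inhibition of growth. At the TGI there is no net growth.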

Experiments:
Test in all cases: NCI anticancer screen, dose series, 48 h
MALME-3M melanoma = test system: MALME-3M melanoma
SF-295 CNS = test system: SF-295 CNS
LOX IMVI melanoma = test system: LOX IMVI melanoma
NCI-H226 lung = test system: NCI-H226 lung
ACHN renal = test system: ACHN renal
BT-549 breast = test system: BT-549 breast
T-47D breast = test system: T-47D breast
U251 CNS = test system: U251 CNS
HCC-2998 colon = test system: HCC-2998 colon
OVCAR-4 ovarian = test system: OVCAR-4 ovarian
HCT-15 colon = test system: HCT-15 colon
SK-MEL-2 melanoma = test system: SK-MEL-2 melanoma
A498 renal = test system: A498 renal

Row | SMILES | TGI (MALME-3M melanoma) [µM] | TGI (SF-295 CNS) | TGI (LOX IMVI melanoma) [µM] | TGI (NCI-H226 lung) | TGI (ACHN renal) | TGI (BT-549 breast) [µM] | TGI (T-47D breast) | TGI (U251 CNS) [µM] | TGI (HCC-2998 colon) [µM] | TGI (OVCAR-4 ovarian) [µM] | TGI (HCT-15 colon) [µM] | TGI (SK-MEL-2 melanoma) | TGI (A498 renal) [µM] | GI50 (SF-295 CNS) [µM] | GI50 (NCI-H226 lung) [µM] | GI50 (ACHN renal) [µM] | GI50 (T-47D breast) [µM] | GI50 (HCC-2998 colon) [µM]
1 | CCCCC1Cc2cc(O)ccc2-c2nc3cc(O)ccc3n21 (centres undefined) (tested in a mixture with another compound) | 57.8 | 33.4 µM | 30.9 | 46.3 µM | 33.7 µM | 41.6 | > 100 µM | 27.5 | 27.4 | 30.8 | 25 |  |  |  |  |  |  | 
2 | O=c1[nH]c2nc3ccccc3c(=O)n2/c1=C/c1cccs1 | > 100 | > 100 µM | > 100 | > 100 µM | > 100 µM | > 100 | > 100 µM | > 100 | > 100 | > 100 | > 100 | > 100 µM |  |  |  |  |  | 
3 | COC(=O)N[C@H](C(=O)NC(OCc1ccccc1)C1COC(C)(C)O1)C(C)O[Si](C)(C)C(C)(C)C (some centres undefined) | > 100 |  |  |  | > 100 µM |  | > 100 µM | > 100 | > 100 | > 100 | > 100 |  | > 100 |  |  |  |  | 
4 | CCCC(=O)[O-].CCCC(=O)[O-].NCCN.NCCN.[Co+3].[O-][Cl+3]([O-])([O-])[O-] | > 100 | > 100 µM | > 100 |  | > 100 µM |  |  | > 100 | > 100 | > 100 | > 100 | > 100 µM | > 100 |  |  |  |  | 
5 | O=c1[nH]nc(Cc2ccc(Cl)cc2)n1/N=C/c1cccs1 | > 100 | 44 µM |  | > 100 µM | > 100 µM | 66.5 | > 100 µM | > 100 | > 100 | > 100 | > 100 | 93.6 µM | > 100 |  |  |  |  | 
6 | Cc1cc(C)nc(NC(P(=O)(O)O)P(=O)(O)O)n1 | > 100 | > 100 µM | > 100 | > 100 µM | > 100 µM | > 100 |  |  | > 100 |  | > 100 |  |  |  |  |  |  | 
7 | C[n+]1c2ccccc2c(NC(CCCN=C(N)N)C(=O)O)c2ccccc21 (centres undefined) | > 100 | > 100 µM |  | > 100 µM | > 100 µM |  |  | > 100 | > 100 | > 100 | > 100 | > 100 µM | > 100 |  |  |  |  | 
8 | COc1cc2nc(-c3cccs3)nc(Cl)c2cc1OC | > 100 | > 100 µM |  | > 100 µM | > 100 µM | > 100 | > 100 µM | > 100 |  | > 100 | > 100 | > 100 µM | > 100 |  |  |  |  | 
9 | O=C1CC(=O)NC(=NN2C(=O)/C(=C/c3ccc(Cl)c(Cl)c3)N=C2c2ccccc2)N1 | > 100 | > 100 µM |  | > 100 µM | > 100 µM | 49.2 | > 100 µM | 90.4 | 39.6 | > 100 | > 100 | 34.4 µM | 62.9 |  |  |  |  | 
10 | CC(=O)c1ccc2c(c1)C(=O)c1sc(C(C)=O)cc1C2=O | 1.2 | 1.84 µM and 3 µM | 2.12 | 2.2 µM and 4.03 µM | 1.54 µM and 1.5 µM |  | 3.01 µM and 4.31 µM | 50 |  |  | 2.18 | 4.23 µM and 2.98 µM | 50 | 1.56 | 1.43 | 0.405 | 1.73 | 1.71
